These compounds were tested against T1, Nuclear receptor subfamily 1 group I member 2 (Homo sapiens, UniProt O75469) (assay: Agonist activity at PXR-LBD expressed in HEK293 cells assessed as Gal4-DBD interaction by cellular mammalian one hybrid assay).
T1 sequence (O75469 whole entry): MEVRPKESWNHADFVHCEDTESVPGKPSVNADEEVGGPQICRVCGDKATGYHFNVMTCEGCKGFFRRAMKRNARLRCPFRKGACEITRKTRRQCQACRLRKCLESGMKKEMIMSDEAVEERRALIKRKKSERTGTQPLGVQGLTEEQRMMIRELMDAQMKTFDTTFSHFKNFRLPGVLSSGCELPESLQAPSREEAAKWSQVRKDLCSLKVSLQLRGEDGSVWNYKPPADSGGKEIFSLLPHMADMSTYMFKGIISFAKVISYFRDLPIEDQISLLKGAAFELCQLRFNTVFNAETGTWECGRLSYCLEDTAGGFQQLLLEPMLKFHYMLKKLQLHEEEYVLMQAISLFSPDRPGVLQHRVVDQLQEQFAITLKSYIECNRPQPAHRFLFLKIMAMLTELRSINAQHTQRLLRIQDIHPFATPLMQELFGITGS
With `CN(Cc1cccc(C(=O)O)c1)c1ccc(OCc2c(-c3c(Cl)cccc3Cl)noc2C2CC2)nc1C(F)(F)F` [3-(((6-((5-cyclopropyl-3-(2,6-dichlorophenyl)isoxazol-4-yl)methoxy)-2-(trifluoromethyl)pyridin-3-yl)(methyl)amino)methyl)benzoic acid] the EC50 was 0.39 µM. Work on `CC(C)c1onc(-c2c(Cl)cccc2Cl)c1COc1ccc(N(C)Cc2ccc(C(=O)O)cc2)c(C(F)(F)F)n1` [4-(((6-((3-(2,6-dichlorophenyl)-5-isopropylisoxazol-4-yl)methoxy)-2-(trifluoromethyl)pyridin-3-yl)(methyl)amino)methyl)benzoic acid] yielded an EC50 greater than 1.28 µM. With `CN(Cc1ccc(C(=O)O)cc1)c1ccc(OCc2c(-c3c(Cl)cccc3Cl)noc2C2CC2)nc1C(F)(F)F` [4-(((6-((5-cyclopropyl-3-(2,6-dichlorophenyl)isoxazol-4-yl)methoxy)-2-(trifluoromethyl)pyridin-3-yl)(methyl)amino)methyl)benzoic acid] the EC50 was 3.87 µM.

— BindingDB's records for doi:10.1016/j.bmcl.2010.06.084 (Phenex Pharmaceuticals, 2010)
